From US9296725B2, “Heterocyclyl pyrimidine analogues as TYK2 inhibitors” (Cellzome Limited, priority 2012, dated 2016) come the findings set out here.

One test concerns the target T1, TYK2 (Homo sapiens, UniProt P29597).
T1 construct: endogenous in cells; host or cells: Molt4 (ATCC CRL-1582) and Ramos (ATCC CRL-1596), mixed lysate 1:2
Nature of the test: Kinobeads assay, TYK2 (competition binding in mixed Molt4/Ramos cell lysate, dot blot detection). Conditions: Kinobeads assay, Molt4/Ramos lysate; read-out: TYK2 Band (Kinobeads assay potency, IC50). The essentials:
(§1)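 Competition binding: compound dilutions (1:3 series, 9 steps) plus immobilized aminopyrido-pyrimidine beads incubated 3 h in the cold with mixed Molt4/Ramos lysate (1:2) at 10 mg/mL protein. Bead-bound JAK2/TYK2 eluted and quantified by antibody dot blot with infrared detection; IC50 from dose-response curves.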

The target in another test is T2, JAK2 (Homo sapiens, UniProt O60674).
T2 construct: endogenous in cells; host or cells: Molt4 (ATCC CRL-1582) and Ramos (ATCC CRL-1596), mixed lysate 1:2
T2 sequence (O60674 whole entry): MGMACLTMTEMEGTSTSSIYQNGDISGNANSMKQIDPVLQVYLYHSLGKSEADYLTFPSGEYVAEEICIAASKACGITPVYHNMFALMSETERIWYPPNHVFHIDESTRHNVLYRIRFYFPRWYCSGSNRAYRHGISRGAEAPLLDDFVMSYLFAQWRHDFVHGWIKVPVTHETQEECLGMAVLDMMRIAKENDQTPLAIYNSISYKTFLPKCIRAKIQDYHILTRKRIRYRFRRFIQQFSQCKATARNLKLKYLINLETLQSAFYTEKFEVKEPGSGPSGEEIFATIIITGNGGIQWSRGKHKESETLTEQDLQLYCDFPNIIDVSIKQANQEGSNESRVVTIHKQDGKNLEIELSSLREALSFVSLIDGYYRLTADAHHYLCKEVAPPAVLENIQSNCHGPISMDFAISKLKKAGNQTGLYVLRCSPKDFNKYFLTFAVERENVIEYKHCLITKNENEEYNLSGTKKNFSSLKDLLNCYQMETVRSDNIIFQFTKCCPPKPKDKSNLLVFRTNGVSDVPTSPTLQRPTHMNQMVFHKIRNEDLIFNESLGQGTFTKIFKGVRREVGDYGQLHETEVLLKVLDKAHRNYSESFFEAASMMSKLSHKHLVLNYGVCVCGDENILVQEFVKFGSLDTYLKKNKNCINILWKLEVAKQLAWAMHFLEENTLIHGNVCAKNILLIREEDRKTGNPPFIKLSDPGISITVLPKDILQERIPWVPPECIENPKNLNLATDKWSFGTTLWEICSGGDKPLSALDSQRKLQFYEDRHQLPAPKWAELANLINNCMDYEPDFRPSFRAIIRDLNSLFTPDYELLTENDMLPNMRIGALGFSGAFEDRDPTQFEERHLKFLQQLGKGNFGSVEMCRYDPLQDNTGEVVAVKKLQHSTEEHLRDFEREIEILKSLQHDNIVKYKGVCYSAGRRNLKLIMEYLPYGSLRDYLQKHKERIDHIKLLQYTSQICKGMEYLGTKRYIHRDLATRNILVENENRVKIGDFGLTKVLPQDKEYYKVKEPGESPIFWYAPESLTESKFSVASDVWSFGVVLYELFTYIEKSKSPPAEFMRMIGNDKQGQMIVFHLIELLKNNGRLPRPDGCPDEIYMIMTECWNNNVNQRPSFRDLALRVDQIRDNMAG
The test is described as follows: Kinobeads assay, JAK2 (competition binding in mixed Molt4/Ramos cell lysate, dot blot detection). To be noted: read-out: JAK2 Band (Kinobeads assay potency, IC50). The essentials:
as §1

What is called IC50 is the concentration at which inhibition is half-maximal.

T1 sequence (P29597 whole entry): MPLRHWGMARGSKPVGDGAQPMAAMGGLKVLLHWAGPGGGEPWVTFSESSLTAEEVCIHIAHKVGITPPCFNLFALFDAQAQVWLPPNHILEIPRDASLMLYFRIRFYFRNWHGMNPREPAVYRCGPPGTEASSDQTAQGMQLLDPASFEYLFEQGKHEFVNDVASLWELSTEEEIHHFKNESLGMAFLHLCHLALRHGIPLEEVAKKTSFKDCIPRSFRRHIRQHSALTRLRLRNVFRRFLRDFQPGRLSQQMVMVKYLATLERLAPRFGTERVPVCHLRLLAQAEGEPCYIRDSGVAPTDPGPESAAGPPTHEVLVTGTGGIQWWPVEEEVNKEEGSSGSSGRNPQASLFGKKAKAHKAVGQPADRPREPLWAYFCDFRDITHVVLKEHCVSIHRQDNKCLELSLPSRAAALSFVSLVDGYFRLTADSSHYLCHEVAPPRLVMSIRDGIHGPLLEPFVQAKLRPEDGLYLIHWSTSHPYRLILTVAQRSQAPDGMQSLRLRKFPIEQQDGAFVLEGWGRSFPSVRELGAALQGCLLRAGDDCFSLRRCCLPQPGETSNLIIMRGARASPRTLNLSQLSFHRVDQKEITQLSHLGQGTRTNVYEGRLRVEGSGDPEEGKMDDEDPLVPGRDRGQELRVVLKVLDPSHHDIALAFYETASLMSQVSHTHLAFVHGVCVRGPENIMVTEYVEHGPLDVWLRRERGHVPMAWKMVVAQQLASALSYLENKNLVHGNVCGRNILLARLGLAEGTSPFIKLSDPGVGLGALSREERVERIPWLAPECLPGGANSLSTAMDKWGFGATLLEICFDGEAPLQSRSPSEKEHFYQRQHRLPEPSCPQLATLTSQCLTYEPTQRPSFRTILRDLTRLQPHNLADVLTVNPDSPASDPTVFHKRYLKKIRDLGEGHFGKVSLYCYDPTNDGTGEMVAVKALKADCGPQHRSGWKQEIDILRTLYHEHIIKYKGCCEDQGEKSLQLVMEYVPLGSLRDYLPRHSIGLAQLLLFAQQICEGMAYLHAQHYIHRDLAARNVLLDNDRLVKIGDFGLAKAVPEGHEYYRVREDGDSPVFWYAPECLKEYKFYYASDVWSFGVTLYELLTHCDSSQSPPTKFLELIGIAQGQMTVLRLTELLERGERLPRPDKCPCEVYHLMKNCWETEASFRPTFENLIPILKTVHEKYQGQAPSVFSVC

Turning to `COc1ccc(F)c(CNc2ccnc(Nc3cnn(CC(=O)N[C@@H]4C[C@@H]4F)c3)n2)c1F` [Example I-128], the IC50 is 10 to 100 nM at TYK2 and 1000 to 10000 nM on JAK2.
For `O=C(Cn1cc(Nc2nccc(NCc3c(F)cccc3Cl)n2)cn1)N1CCOCC1` [Example I-129], in that order: at most 10 nM and above 10000 nM.
Turning to `Cc1ccc(F)c(CNc2ccnc(Nc3cnn(CC(=O)N[C@@H](C)CO)c3)n2)c1F` [Example I-130], the IC50 is 10 to 100 nM on TYK2 and 1000 to 10000 nM on JAK2.
With `C[C@H](CO)NC(=O)Cn1cc(Nc2nccc(NCc3c(Cl)ccc(Cl)c3F)n2)cn1` [Example I-131], the IC50 was in the range of 10 to 100 nM on TYK2 and 100 to 1000 nM on JAK2.
Turning to `C[C@@H](CO)NC(=O)Cn1cc(Nc2nccc(NCc3c(F)cc(F)cc3Cl)n2)cn1` [Example I-132], the IC50 at TYK2 is at most 10 nM; on JAK2, 1000 to 10000 nM.
For the compound `COc1ccc(F)c(CNc2ccnc(Nc3cnn(CC(=O)N[C@@H](C)CO)c3)n2)c1F` [Example I-133], the IC50 is at most 10 nM at TYK2 and 1000 to 10000 nM at JAK2.
For `CC(C)NC(=O)Cn1cc(Nc2nccc(NCc3c(F)ccc(C#N)c3F)n2)cn1` [Example I-134], in that order: at most 10 nM and 1000 to 10000 nM.
For the compound `Cn1cc(Nc2nccc(NCc3c(F)ccc(C#N)c3F)n2)cn1` [Example I-135], the IC50 at TYK2 lay in the range of 10 to 100 nM; on JAK2 it was 1000 to 10000 nM.
The corresponding values for `Fc1cccc(CNc2nc(Nc3cn[nH]c3)ncc2Cl)c1C(F)(F)F` [Example I-136] are 10 to 100 nM and 100 to 1000 nM.
Turning to `O=C(Cn1cc(Nc2nccc(NCc3c(F)cc(F)cc3F)n2)cn1)N[C@@H]1CCOC1` [Example I-137], the 50% inhibitory concentration (IC50) at TYK2 is 10 to 100 nM; on JAK2, 1000 to 10000 nM.
The corresponding values for `O=C(Cn1cc(Nc2nccc(NCc3c(F)cc(F)cc3F)n2)cn1)N[C@H]1CCOC1` [Example I-138] are 10 to 100 nM and 1000 to 10000 nM.
`O=C(Cn1cc(Nc2nccc(NCc3c(F)cccc3Cl)n2)cn1)NC1CC1` [Example I-139]: the IC50 is at most 10 nM at TYK2 and 1000 to 10000 nM on JAK2.
For `O=C(Cn1cc(Nc2nccc(NCc3c(F)cccc3Cl)n2)cn1)NCCF` [Example I-140], in that order: 10 to 100 nM and 1000 to 10000 nM.
For the compound `O=C(Cn1cc(Nc2nccc(NCc3c(F)cccc3Cl)n2)cn1)NCC(F)F` [Example I-141], the concentration for half-maximal inhibition (IC50) on TYK2 is 10 to 100 nM; on JAK2 it was 1000 to 10000 nM.
Regarding `O=C(Cn1cc(Nc2nccc(NCc3c(F)cccc3Cl)n2)cn1)N[C@@H]1C[C@@H]1F` [Example I-142], the IC50 was in the range of 10 to 100 nM on TYK2 and 1000 to 10000 nM on JAK2.
The corresponding values for `C[C@H](CO)NC(=O)Cn1cc(Nc2nccc(NCc3c(F)ccc(F)c3F)n2)cn1` [Example I-143] are 10 to 100 nM and 1000 to 10000 nM.
As to `O=C(Cn1cc(Nc2nccc(NCc3c(F)ccc(F)c3F)n2)cn1)NC1CC1` [Example I-144], the values for the IC50 on TYK2 and at JAK2 were at most 10 nM and 1000 to 10000 nM, respectively.
Turning to `CC(C)NC(=O)Cn1cc(Nc2nccc(NCc3c(F)cncc3F)n2)cn1` [Example I-145], the 50% inhibitory concentration (IC50) was at most 10 nM on TYK2 and above 10000 nM on JAK2.
Take `C[C@@H](CO)NC(=O)Cn1cc(Nc2nccc(NCc3c(F)cncc3F)n2)cn1` [Example I-146]: the IC50 at TYK2 was 10 to 100 nM; on JAK2, above 10000 nM.
`C[C@H](CO)NC(=O)Cn1cc(Nc2nccc(NCc3c(F)cncc3F)n2)cn1` [Example I-147]: the IC50 on TYK2 was 10 to 100 nM; at JAK2, above 10000 nM.
For `Cn1cc(Nc2nccc(NCc3c(F)cncc3F)n2)cn1` [Example I-148], the IC50 at TYK2 was 10 to 100 nM; at JAK2, 1000 to 10000 nM.
Regarding `CC(NC(=O)Cn1cc(Nc2nccc(NCc3c(F)cc(F)cc3F)n2)cn1)C(F)F` (stereo not drawn) [Example I-149], the IC50 is 10 to 100 nM at TYK2 and above 10000 nM at JAK2.
Consider `C[C@@H](CO)NC(=O)Cn1cc(Nc2nccc(NCc3c(F)cccc3F)n2)cn1` [Example I-151], for which the IC50 at TYK2 is 10 to 100 nM; at JAK2 it was 1000 to 10000 nM.
Take `O=C(Cn1cc(Nc2nccc(NCc3c(F)cccc3F)n2)cn1)NC1CC1` [Example I-152]: the results for the 50% inhibitory concentration (IC50) on TYK2 and on JAK2 were 10 to 100 nM and 1000 to 10000 nM, respectively.
For `C[C@@H](CO)NC(=O)Cn1cc(Nc2nccc(NCc3c(F)ccc(C#N)c3F)n2)cn1` [Example I-153], the results for the IC50 at TYK2 and on JAK2 were at most 10 nM and 1000 to 10000 nM, respectively.
In the case of `C[C@H](CO)NC(=O)Cn1cc(Nc2nccc(NCc3c(F)ccc(C#N)c3F)n2)cn1` [Example I-154], the IC50 on TYK2 is at most 10 nM; on JAK2, 1000 to 10000 nM.
For the compound `Cc1cccc(F)c1CNc1ccnc(Nc2cnn(CC(=O)NC(C)C)c2)n1` [Example I-155], the IC50 on TYK2 was at most 10 nM; on JAK2, 1000 to 10000 nM.
Take `Cc1cccc(F)c1CNc1ccnc(Nc2cnn(CC(=O)N[C@@H](C)CO)c2)n1` [Example I-156]: the 50% inhibitory concentration (IC50) at TYK2 is at most 10 nM; at JAK2, 1000 to 10000 nM.
For `NC(=O)Cn1cc(Nc2ncc(F)c(NCc3c(F)cc(F)cc3F)n2)cn1` [Example I-157], in that order: 10 to 100 nM and 1000 to 10000 nM.
Take `Cn1cc(Nc2ncc(Cl)c(NCc3ccccc3)n2)cn1` [Example I-158]: the values for the IC50 on TYK2 and at JAK2 were 100 to 1000 nM and 1000 to 10000 nM, respectively.
Turning to `Cn1cc(Nc2ncc(Cl)c(NCc3cccc(C#N)c3)n2)cn1` [Example I-159], the IC50 at TYK2 lay in the range of 10 to 100 nM; on JAK2, 1000 to 10000 nM.
Turning to `O=C(Cn1cc(Nc2ncc(Cl)c(NCc3ccccc3)n2)cn1)N1CCOCC1` [Example I-160], the IC50 at TYK2 is 10 to 100 nM; at JAK2, 1000 to 10000 nM.
Turning to `O=C(Cn1cc(Nc2ncc(Cl)c(NCc3c(F)cccc3F)n2)cn1)N1CCOCC1` [Example I-161], the IC50 on TYK2 was at most 10 nM; on JAK2 it was 100 to 1000 nM.
For `O=C(Cn1cc(Nc2ncc(Cl)c(NCc3cc(F)cc(F)c3)n2)cn1)N1CCOCC1` [Example I-162], in that order: 10 to 100 nM and 10 to 100 nM.
For `Cn1cc(Nc2ncc(Cl)c(NCc3cccc(Br)c3)n2)cn1` [Example I-163], in that order: 100 to 1000 nM and 1000 to 10000 nM.
On to `OCCn1cc(Nc2ncc(Cl)c(NCc3cc(Br)ccc3F)n2)cn1` [Example I-164], for which the IC50 on TYK2 fell in the range of 10 to 100 nM; on JAK2 it was 100 to 1000 nM.
Take `O=C(O)Cn1cc(Nc2ncc(Cl)c(NCc3c(F)cccc3F)n2)cn1` [Example I-165]: the results for the IC50 at TYK2 and on JAK2 were 10 to 100 nM and 1000 to 10000 nM, respectively.
For `Cn1cc(Nc2ncc(Cl)c(NCc3cc(F)cc(C(F)(F)F)c3)n2)cn1` [Example I-166], in that order: 100 to 1000 nM and 1000 to 10000 nM.
For `N#Cc1cccc(CNc2nc(Nc3cnn(CCO)c3)ncc2F)c1` [Example I-167], in that order: 10 to 100 nM and 1000 to 10000 nM.
`O=C(O)Cn1cc(Nc2ncc(Cl)c(NCc3cc(F)cc(F)c3)n2)cn1` [Example I-168]: the half-maximal inhibitory concentration (IC50) on TYK2 and on JAK2 was 100 to 1000 nM each time.
`Cc1cnc(Nc2cnn(CCO)c2)nc1NCc1ccccc1` [Example I-169]: the IC50 was in the range of 100 to 1000 nM on TYK2 and 1000 to 10000 nM on JAK2.
In the case of `OCCn1cc(Nc2ncc(F)c(NCc3cccc(F)c3F)n2)cn1` [Example I-170], the results for the IC50 on TYK2 and on JAK2 were 100 to 1000 nM and 1000 to 10000 nM, respectively.
`OCCn1cc(Nc2ncc(Cl)c(NCc3cccc(F)c3)n2)cn1` [Example I-171]: the figures for the IC50 at TYK2 and on JAK2 were 10 to 100 nM and 100 to 1000 nM, respectively.
Turning to `N#Cc1cccc(CNc2nc(Nc3cnn(CC(=O)N4CCOCC4)c3)ncc2Cl)c1` [Example I-172], the IC50 lay in the range of 10 to 100 nM at TYK2 and 100 to 1000 nM on JAK2.
The corresponding values for `Cn1cc(Nc2ncc(Cl)c(NCc3ccccc3F)n2)cn1` [Example I-173] are 100 to 1000 nM and 100 to 1000 nM.
As for `OCCn1cc(Nc2ncc(Cl)c(NCc3ccccc3F)n2)cn1` [Example I-174], the half-inhibitory concentration (IC50) is 10 to 100 nM at TYK2 and 100 to 1000 nM on JAK2.
Regarding `Cn1cc(Nc2ncc(Cl)c(NCc3c(F)cccc3F)n2)cn1` [Example I-175], the IC50 lay in the range of 10 to 100 nM at TYK2 and 1000 to 10000 nM at JAK2.
As for `Cn1cc(Nc2ncc(Cl)c(NCc3cc(F)cc(F)c3)n2)cn1` [Example I-176], the IC50 at TYK2 and on JAK2 was 10 to 100 nM in each case.
As to `Cn1cc(Nc2ncc(F)c(NCc3cccc(F)c3F)n2)cn1` [Example I-177], the half-maximal inhibitory concentration (IC50) on TYK2 is 100 to 1000 nM; on JAK2, 1000 to 10000 nM.
In the case of `O=C(Cn1cc(Nc2ncc(Cl)c(NCc3cccc(F)c3F)n2)cn1)N1CCOCC1` [Example I-178], the IC50 at TYK2 lay in the range of 10 to 100 nM; on JAK2 it was 100 to 1000 nM.
Take `Cn1cc(Nc2ncc(Cl)c(NCc3cccc(F)c3F)n2)cn1` [Example I-179]: the IC50 on TYK2 and at JAK2 was 100 to 1000 nM throughout.
Consider `OCCn1cc(Nc2ncc(Cl)c(NCc3cccc(F)c3F)n2)cn1` [Example I-180], for which the values for the IC50 on TYK2 and at JAK2 were 10 to 100 nM and 100 to 1000 nM, respectively.
For `OCCn1cc(Nc2ncc(Cl)c(NCc3cc(F)cc(C(F)(F)F)c3)n2)cn1` [Example I-181], in that order: 100 to 1000 nM and 1000 to 10000 nM.
Consider `N#Cc1cccc(CNc2nc(Nc3cnn(CCO)c3)ncc2Cl)c1` [Example I-182], for which the figures for the IC50 at TYK2 and on JAK2 were 10 to 100 nM and 100 to 1000 nM, respectively.
For the compound `Cn1cc(Nc2ncc(F)c(NCc3cccc(C#N)c3)n2)cn1` [Example I-183], the figures for the IC50 on TYK2 and on JAK2 were 10 to 100 nM and 1000 to 10000 nM, respectively.
Take `COc1ccccc1CNc1nc(Nc2cnn(CCO)c2)ncc1Cl` [Example I-185]: the IC50 on TYK2 was 100 to 1000 nM; on JAK2 it was 1000 to 10000 nM.
Consider `COc1cccc(CNc2nc(Nc3cnn(CCO)c3)ncc2Cl)c1` [Example I-186], for which the IC50 on TYK2 lay within 100 to 1000 nM; at JAK2, 1000 to 10000 nM.
